Data reported in patent EP3714904B1, “IMINODIACETIC ACID SUBSTITUTED CYCLODEXTRINS AS POTENTIATORS OF BETA-LACTAM ANTIBIOTICS” (NATIONAL CENTER FOR SCIENTIFIC RESEARCH "DEMOKRITOS" (NCSRD), priority 2019, dated 2020).

Test system: Klebsiella pneumoniae
Experiment: MIC of β-lactams alone or with 50 µM IDACYD against clinical isolates
Assay type: cell-based
Experimental: Further the in-vitro inhibitory activity of IDACYDs was tested against highly resistant pathogens. […] Table 2: Collection of clinical isolates used for in-vitro evaluation

[1] = isolate LA-34 (VIM, CMY), first entry of Table 3
[2] = isolate LA-34 (VIM, CMY), second entry of Table 3
[3] = isolate LAR-26I/15 (NDM, VIM, CTXM)
[4] = isolate LAR-37II/15 (NDM, VIM, CTXM)
[5] = isolate LAR-38I/15 (VIM, NDM, CTXM)

CO[C@@H]1[C@@H](OC)[C@H]2O[C@H]3[C@H](OC)[C@@H](OC)[C@@H](O[C@H]4[C@H](OC)[C@@H](OC)[C@@H](O[C@H]5[C@H](OC)[C@@H](OC)[C@@H](O[C@H]6[C@H](OC)[C@@H](OC)[C@@H](O[C@H]7[C@H](OC)[C@@H](OC)[C@@H](O[C@H]8[C@H](OC)[C@@H](OC)[C@@H](O[C@@H]1[C@@H](CN(CC(=O)O)CC(=O)O)O2)O[C@@H]8CN(CC(=O)O)CC(=O)O)O[C@@H]7CN(CC(=O)O)CC(=O)O)O[C@@H]6CN(CC(=O)O)CC(=O)O)O[C@@H]5CN(CC(=O)O)CC(=O)O)O[C@@H]4CN(CC(=O)O)CC(=O)O)O[C@@H]3CN(CC(=O)O)CC(=O)O [β-IDACYD]
Imipenem /50µM β-IDACYD MIC (isolate 6/100 (VIM)): 1 µg/mL | Meropenem /50µM β-IDACYD MIC (isolate 6/100 (VIM)): 1 µg/mL | Imipenem /50µM β-IDACYD MIC (isolate 2489 (NDM)): 0.5 µg/mL | Meropenem /50µM β-IDACYD MIC (isolate 2489 (NDM)): 1 µg/mL | Imipenem /50µM β-IDACYD MIC (isolate 2685 (VIM, CMY, CTXM)): 0.5 µg/mL | Meropenem /50µM β-IDACYD MIC (isolate 2685 (VIM, CMY, CTXM)): <0.25 µg/mL | Ceftazidime/ 50µM β-IDACYD MIC (isolate ALX-47 (OXA-48,CTX-M)): >256 µg/mL | Imipenem /50µM β-IDACYD MIC (isolate ALX-47 (OXA-48,CTX-M)): 4 µg/mL | Meropenem /50µM β-IDACYD MIC (isolate ALX-47 (OXA-48,CTX-M)): 4 µg/mL | Imipenem /50µM β-IDACYD MIC (isolate ESDY-1780 (VIM, KPC)): 8 µg/mL | Meropenem /50µM β-IDACYD MIC (isolate ESDY-1780 (VIM, KPC)): 32 µg/mL | Imipenem /50µM β-IDACYD MIC (isolate ESDY-2681 (VIM-27)): <0.125 µg/mL | Meropenem /50µM β-IDACYD MIC (isolate ESDY-2681 (VIM-27)): <0.25 µg/mL | Ceftazidime/ 50µM β-IDACYD MIC (isolate ESDY-5742 (IMP)): 1 µg/mL | Imipenem /50µM β-IDACYD MIC (isolate ESDY-5742 (IMP)): <0.125 µg/mL | Meropenem /50µM β-IDACYD MIC (isolate ESDY-5742 (IMP)): <0.25 µg/mL | Imipenem /50µM β-IDACYD MIC (isolate EY-20S (CMY, SHV)): 2 µg/mL | Meropenem /50µM β-IDACYD MIC (isolate EY-20S (CMY, SHV)): 4 µg/mL | Imipenem /50µM β-IDACYD MIC (isolate IT-17829 (CTXM, SHV)): 0.5 µg/mL | Meropenem /50µM β-IDACYD MIC (isolate IT-17829 (CTXM, SHV)): 32 µg/mL | Imipenem /50µM β-IDACYD MIC (isolate L078/11 (KPC)): 16 µg/mL | Meropenem /50µM β-IDACYD MIC (isolate L078/11 (KPC)): 64 µg/mL | Imipenem /50µM β-IDACYD MIC (isolate LA-26 (NDM)): <0.125 µg/mL | Meropenem /50µM β-IDACYD MIC (isolate LA-26 (NDM)): <0.25 µg/mL | Imipenem /50µM β-IDACYD MIC (isolate LA-27 (NDM, CTXM)): <0.125 µg/mL | Meropenem /50µM β-IDACYD MIC (isolate LA-27 (NDM, CTXM)): <0.25 µg/mL | Ceftazidime/ 50µM β-IDACYD MIC (isolate LA-28 (NDM, CTXM)): 32 µg/mL | Imipenem /50µM β-IDACYD MIC (isolate LA-28 (NDM, CTXM)): <0.125 µg/mL | Meropenem /50µM β-IDACYD MIC (isolate LA-28 (NDM, CTXM)): <0.25 µg/mL | Imipenem /50µM β-IDACYD MIC [1]: <0.5 µg/mL | Meropenem /50µM β-IDACYD MIC [1]: 0.25 µg/mL | Imipenem /50µM β-IDACYD MIC [2]: 0.25 µg/mL | Meropenem /50µM β-IDACYD MIC [2]: 0.25 µg/mL | Imipenem /50µM β-IDACYD MIC (isolate LA-38 (NDM)): <0.125 µg/mL | Meropenem /50µM β-IDACYD MIC (isolate LA-38 (NDM)): 0.5 µg/mL | Ceftazidime/ 50µM β-IDACYD MIC (isolate LA-82/16 (VIM, SHV)): 32 µg/mL | Imipenem /50µM β-IDACYD MIC (isolate LA-82/16 (VIM, SHV)): <0.125 µg/mL | Meropenem /50µM β-IDACYD MIC (isolate LA-82/16 (VIM, SHV)): 0.25 µg/mL | Ceftazidime/ 50µM β-IDACYD MIC (isolate LA-109/16 (VIM, CTXM)): 32 µg/mL | Imipenem /50µM β-IDACYD MIC (isolate LA-109/16 (VIM, CTXM)): <0.125 µg/mL | Meropenem /50µM β-IDACYD MIC (isolate LA-109/16 (VIM, CTXM)): <0.25 µg/mL | Imipenem /50µM β-IDACYD MIC (isolate LA-419/16 (NDM,CTXM)): <0.125 µg/mL | Meropenem /50µM β-IDACYD MIC (isolate LA-419/16 (NDM,CTXM)): <0.25 µg/mL | Imipenem /50µM β-IDACYD MIC (isolate LA-470/17 (NDM)): 8 µg/mL | Meropenem /50µM β-IDACYD MIC (isolate LA-470/17 (NDM)): 32 µg/mL | Imipenem /50µM β-IDACYD MIC [3]: 0.125 µg/mL | Meropenem /50µM β-IDACYD MIC [3]: 0.5 µg/mL | Imipenem /50µM β-IDACYD MIC [4]: <0.125 µg/mL | Meropenem /50µM β-IDACYD MIC [4]: <0.25 µg/mL | Imipenem /50µM β-IDACYD MIC [5]: <0.125 µg/mL | Meropenem /50µM β-IDACYD MIC [5]: <0.25 µg/mL | Imipenem /50µM β-IDACYD MIC (isolate LAR-40II/15 (KPC)): 16 µg/mL | Meropenem /50µM β-IDACYD MIC (isolate LAR-40II/15 (KPC)): 64 µg/mL | Imipenem /50µM β-IDACYD MIC (isolate LAR-2873 (VIM-12)): <0.125 µg/mL
